Patent US9873709B2 (priority 2013, dated 2018)
Read-outs that look alike come from different tables or passages of the source.

How the values were obtained:
[1] = tested on: JAK1-dependent STAT6 phosphorylation downstream of IL-13 stimulation in TF-1 human erythroleukemia cells; assay: cells; settings: TF-1, read-out: IL-13-pSTAT6 IC50
[2] = tested on: JAK1-dependent STAT6 phosphorylation downstream of IL-13 stimulation in BEAS-2B human bronchial epithelial cells; assay: cells; settings: read-out: IL13-pSTAT6 BEASB2B IC50
[3] = biological target: isolated recombinant JAK2 kinase domain (Homo sapiens (Human), UniProt O60674); settings: read-out: JAK2 Ki
[4] = isolated recombinant JAK2 kinase domain, 25 μM ATP

Sequence of isolated recombinant JAK2 kinase domain (O60674 849-1124): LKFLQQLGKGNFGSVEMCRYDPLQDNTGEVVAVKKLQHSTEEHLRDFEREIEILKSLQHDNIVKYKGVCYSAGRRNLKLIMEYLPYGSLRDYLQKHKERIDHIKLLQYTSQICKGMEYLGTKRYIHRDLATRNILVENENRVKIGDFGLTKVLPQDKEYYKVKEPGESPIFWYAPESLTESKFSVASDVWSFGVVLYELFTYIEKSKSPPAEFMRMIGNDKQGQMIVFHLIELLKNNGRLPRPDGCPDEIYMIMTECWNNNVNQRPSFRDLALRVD

SMILES	IC50 [1] [nM]	IC50 [2] [nM]	Ki [3, 4] [nM]	Ki [3] [nM]
CN1CCC(N(C)C(=O)c2ccc(Nc3nc4c(N5CCC(CC#N)(c6ccccc6)CC5)cccn4n3)cc2)CC1 [Example 1-41, 4-[[8-[4-(cyanomethyl)-4-phenyl-1-piperidyl]-[1,2,4]triazolo[1,5-a]pyridin-2-yl]amino]-N-methyl-N-(1-methyl-4-piperidyl)benzamide]	15.9	42	0.2	
O=C(c1ccc(Nc2nc3c(N4CCC(O)(c5ccc(Cl)cc5)CC4)cccn3n2)cc1)N1CCC(N2CCOCC2)CC1 [Example 1-125, [4-[[8-[4-(4-chlorophenyl)-4-hydroxy-1-piperidyl]-[1,2,4]triazolo[1,5-a]pyridin-2-yl]amino]phenyl]-(4-morpholino-1-piperidyl)methanone]	16.4	42.8	0.63	
CN1CCC(N(C)C(=O)c2ccc(Nc3nc4c(N5CCC(CCC#N)(c6ccc(Cl)cc6)CC5)cccn4n3)cc2)CC1 [Example 1-247, 4-{8-[4-(4-Chloro-phenyl)-4-(2-cyano-ethyl)-piperidin-1-yl]-1,8a-dihydro[1,2,4]triazolo[1,5-a]pyridine-2-ylamino}-N-methyl-N-(1-methyl-piperidin-4-yl)-benzamide]	18.4	115	0.33	
CC(O)C1(c2ccc(Cl)cc2)CCN(c2cccn3nc(Nc4ccc(C(=O)N(C)C5CCN(C)CC5)cc4)nc23)CC1 (stereo not shown) [Example 1-252, 4-[[8-[4-(4-chlorophenyl)-4-(1-hydroxyethyl)-1-piperidyl]-[1,2,4]triazolo[1,5-a]pyridin-2-yl]amino]-N-methyl-N-(1-methyl-4-piperidyl)benzamide]		90.2	0.5	
CCOC(=O)CC1(c2ccc(Cl)cc2)CCN(c2cccn3nc(Nc4ccc(C(=O)N(C)C5CCN(C)CC5)cc4)nc23)CC1 [Example 1-254]	89.9	661	0.39	
CN1CCC(N(C)C(=O)c2ccc(Nc3nc4c(N5CCC(CC(F)F)(c6ccc(Cl)cc6)CC5)cccn4n3)cc2)CC1 [Example 1-256, 4-([8-[4-(4-chlorophenyl)-4-(2,2-difluoroethyl)piperidin-1-yl]-[1,2,4]triazolo[1,5-a]pyridin-2-yl]amino)-N-methyl-N-(1-methylpiperidin-4-yl)benzamide]	56.3	426	0.69	
CN1CCC(N(C)C(=O)c2ccc(Nc3nc4c(N5CCC(CN)(c6ccc(Cl)cc6)CC5)cccn4n3)cc2)CC1 [Example 1-265, 4-([8-[4-(aminomethyl)-4-(4-chlorophenyl)piperidin-1-yl]-[1,2,4]triazolo[1,5-a]-pyridin-2-yl]amino)-N-methyl-N-(1-methylpiperidin-4-yl)benzamide]		94.8	0.57	
CN1CCC(N(C)C(=O)c2ccc(Nc3nc4c(N5CCC(CO)(c6ccc(C(F)F)cc6)CC5)cccn4n3)cc2)CC1 [Example 1-267, 4-[(8-[4-[4-(difluoromethyl)phenyl]-4-(hydroxymethyl)piperidin-1-yl]-[1,2,4]triazolo[1,5-a]pyridin-2-yl)amino]-N-methyl-N-(1-methylpiperidin-4-yl)benzamide]		32.4		0.25
CC(=O)NCC1(c2ccc(Cl)cc2)CCN(c2cccn3nc(Nc4ccc(C(=O)N(C)C5CCN(C)CC5)cc4)nc23)CC1 [Example 1-268, 4-([8-[4-(4-chlorophenyl)-4-(acetamidomethyl)piperidin-1-yl]-[1,2,4]triazolo[1,5-a]pyridin-2-yl]amino)-N-methyl-N-(1-methylpiperidin-4-yl)benzamide]		56.2	0.38	
COC(=O)CCN1CCN(C(=O)Cn2cc(Nc3nc4c(N5CCC(CO)(c6ccc(Cl)cc6)CC5)cccn4n3)cn2)CC1 [Example 1-290, Methyl 3-(4-[2-[4-([8-[4-(4-chlorophenyl)-4-(hydroxymethyl)piperidin-1-yl]-[1,2,4]triazolo[1,5-a]pyridin-2-yl]amino)-1H-pyrazol-1-yl]acetyl]piperazin-1-yl)propanoate]		5.9	0.3	
